The subject of the experiment is A. thaliana seedlings. As to the kind of experiment: Growth and development response of A. thaliana seedlings grown in liquid medium with anticancer drug or hot-water extract. In kind it is in vivo, Arabidopsis thaliana. Particulars: for generation of lateral roots: anticancer drug treatment; for hypocotyl length growth depending on concentration: statistical computing, FIG. 11. The protocol: The Columbia seeds collected from wild-type A. thaliana plants were sterilized and then kept in a dark place at 4° C. for 3 days to enhance germination rate thereof. The wild-type A. thaliana seeds sown on an MS solid medium containing agar were germinated at 22° C. and on the long day condition of 16 hours the day/8 hours night and allowed to grow the A. thaliana seedlings for three days.
The undiluted extract of traditional herbal medicinal material described above was diluted at the ratios of 0.5×, 0.25× and 0.05×, and the MS liquid medium of 1 ml was mixed well with distilled water to make a total volume of 2 ml. in a 12-well cell culture plate. About ten A. thaliana seedlings were planted in each well and the plates were put on a shaker to cultivate them at 100 rpm for three days. Growth and development of the arabidopsis seedlings was analyzed after three days. Each test was carried out in 3 replicates.
The analysis of A. thaliana seedling response to anticancer drugs was made in the same manner, except that the anticancer drugs were applied instead of the traditional herbal medicinal material extract.
Root length, the number of lateral roots and hypocotyl length of the A. thaliana seedlings were measured in order to find the difference in developmental biology shown by the response of A. thaliana seedlings to the anticancer drugs and the extract. The ImageJ software (see rsb.info.nih.gov/ij/) was used to measure the respective lengths in images of the photograph file.
Crude extracts were made with the traditional herbal medicinal materials of each prescription and medicinal material components thereof, respectively, and the ⅕-fold-diluted solution was used as a first effective concentration. The solution was produced by adding 0.4 ml of the crude extract to 1 ml of the 0.5× MS medium and 0.6 ml of water.
For making more quantitative analysis of the reaction to respective traditional herbal medicinal materials, the number of lateral roots were measured for 12 or more A. thaliana seeedlings in each treatment group. […]

The mark [1] stands for this setting: vs DMSO-treated control seedlings, FIG. 8.

Experimental findings from patent US20170218445A1, “DRUG DISCOVERY METHODS USING PLANT DEVELOPMENTAL BIOLOGY” (SEOUL NATIONAL UNIVERSITY R&DB FOUNDATION, priority 2014, published 2017) are described below.

With `CC[C@@]1(O)C(=O)OCc2c1cc1n(c2=O)Cc2cc3ccccc3nc2-1` [camptothecin], the “hypocotyl length growth depending on concentration” value is “inhibited in a significant level”. Moreover, the “generation of lateral roots at low concentration” value (0.05 uM) is “inhibited generation of lateral roots”. Further, the “generation of lateral roots” value (FIG. 8) is reported as “markedly inhibited”.

Regarding `CC(=O)O[C@H]1C(=O)[C@@]2(C)[C@H]([C@H](OC(=O)c3ccccc3)[C@]3(O)C[C@H](OC(=O)[C@H](O)[C@@H](NC(=O)c4ccccc4)c4ccccc4)C(C)=C1C3(C)C)[C@]1(OC(C)=O)CO[C@@H]1C[C@@H]2O` [taxol, Paclitaxel], the “hypocotyl length growth depending on concentration” value was “inhibited in a significant level”. Also, the root morphology result (2 uM, three days after treatment, vs water-treated control roots, FIG. 9) was “dense root hairs and opaque epidermal cells”. Besides, the “generation of lateral roots” value (FIG. 8) was “not significantly affected”. Besides, for the setting “treated or not with taxol, FIG. 8”, the “number of lateral roots generated” value is “Approximately five”. Moreover, under setting [1], the hypocotyl growth entry is on record as “inhibited in proportion to the concentrations” and the root growth result is “inhibited in proportion to the concentrations”. For the same compound, the “trichome morphology (branches)” value (vs control group, FIG. 10) is “changed from the three-branch type to the one-branch type”.
